Measured values from PubChem BioAssay AID1259407 (Chemical Carcinogenesis Research Information System (CCRIS), 2018).
Calls of active or inactive are those of the source. How the calls were made is not given here.

Tested on: CCRIS mutagenicity, Ames/micronucleus/aberration tests
Assay: CCRIS mutagenicity studies

CC(=O)Nc1ccc(O)cc1 was tested, and the mutagenic call (End Point: IN VITRO MICRONUCLEUS, Test System: CHL/IU CELLS, Metabolic Activation: NONE) was “active; positive”, the mutagenic call (End Point: IN VITRO MICRONUCLEUS, Test System: RAT KIDNEY FIBROBLAST NRK-49F, Metabolic Activation: NONE) was “active; positive” and the mutagenic call (Test System: AMES SALMONELLA TYPHIMURIUM, Strain/Indicator: TA97, Metabolic Activation: NONE, Method: STANDARD PLATE) was “inactive; negative”. For the same molecule, the mutagenic call (Test System: AMES SALMONELLA TYPHIMURIUM, Strain/Indicator: TA97, Metabolic Activation: RAT, LIVER, S-9, AROCLOR 1254, Method: STANDARD PLATE) was “inactive; negative”, the mutagenic call (Test System: AMES SALMONELLA TYPHIMURIUM, Strain/Indicator: TA98, Metabolic Activation: GUINEA PIG, LIVER, S-9, PCB, Method: PREINCUBATION) was “inactive; negative” and the mutagenic call (Test System: AMES SALMONELLA TYPHIMURIUM, Strain/Indicator: TA98, Metabolic Activation: HAMSTER, LIVER, S-9, AROCLOR 1254 (10%), Method: PREINCUBATION) was “inactive; negative”. For the same molecule, the mutagenic call (Test System: AMES SALMONELLA TYPHIMURIUM, Strain/Indicator: TA98, Metabolic Activation: HAMSTER, LIVER, S-9, AROCLOR 1254, Method: STANDARD PLATE) was “inactive; negative”, the mutagenic call (Test System: AMES SALMONELLA TYPHIMURIUM, Strain/Indicator: TA98, Metabolic Activation: HAMSTER, LIVER, S-9, PCB, Method: PREINCUBATION) was “inactive; negative” and the mutagenic call (Test System: AMES SALMONELLA TYPHIMURIUM, Strain/Indicator: TA98, Metabolic Activation: MOUSE, LIVER, S-9, AROCLOR 1254, Method: STANDARD PLATE) was “inactive; negative”. For the same molecule, the mutagenic call (Test System: AMES SALMONELLA TYPHIMURIUM, Strain/Indicator: TA98, Metabolic Activation: MOUSE, LIVER, S-9, PCB, Method: PREINCUBATION) was “inactive; negative”, the mutagenic call (Test System: AMES SALMONELLA TYPHIMURIUM, Strain/Indicator: TA98, Metabolic Activation: NONE, Method: PREINCUBATION) was “inactive; negative” and the mutagenic call (Test System: AMES SALMONELLA TYPHIMURIUM, Strain/Indicator: TA98, Metabolic Activation: NONE, Method: STANDARD PLATE) was “inactive; negative”. The mutagenic call (Test System: AMES SALMONELLA TYPHIMURIUM, Strain/Indicator: TA98, Metabolic Activation: RAT, LIVER, S-9, AROCLOR 1254 (10%), Method: PREINCUBATION) was “inactive; negative”, the mutagenic call (Test System: AMES SALMONELLA TYPHIMURIUM, Strain/Indicator: TA98, Metabolic Activation: RAT, LIVER, S-9, AROCLOR 1254, Method: STANDARD PLATE) was “inactive; negative” and the mutagenic call (Test System: AMES SALMONELLA TYPHIMURIUM, Strain/Indicator: TA98, Metabolic Activation: RAT, LIVER, S-9, ETHANOL, Method: STANDARD PLATE) was “inactive; negative”. For the same molecule, the mutagenic call (Test System: AMES SALMONELLA TYPHIMURIUM, Strain/Indicator: TA98, Metabolic Activation: RAT, LIVER, S-9, PCB, Method: PREINCUBATION) was “inactive; negative”, the mutagenic call (Test System: AMES SALMONELLA TYPHIMURIUM, Strain/Indicator: TA98, Metabolic Activation: RAT, LIVER, S-9, PYRAZOLE, Method: STANDARD PLATE) was “inactive; negative” and the mutagenic call (Test System: AMES SALMONELLA TYPHIMURIUM, Strain/Indicator: TA100, Metabolic Activation: GUINEA PIG, LIVER, S-9, PCB, Method: PREINCUBATION) was “inactive; negative”. For the same molecule, the mutagenic call (Test System: AMES SALMONELLA TYPHIMURIUM, Strain/Indicator: TA100, Metabolic Activation: HAMSTER, LIVER, S-9, AROCLOR 1254 (10%), Method: PREINCUBATION) was “inactive; negative”, the mutagenic call (Test System: AMES SALMONELLA TYPHIMURIUM, Strain/Indicator: TA100, Metabolic Activation: HAMSTER, LIVER, S-9, AROCLOR 1254, Method: STANDARD PLATE) was “inactive; negative” and the mutagenic call (Test System: AMES SALMONELLA TYPHIMURIUM, Strain/Indicator: TA100, Metabolic Activation: HAMSTER, LIVER, S-9, PCB, Method: PREINCUBATION) was “active; positive”. The mutagenic call (Test System: AMES SALMONELLA TYPHIMURIUM, Strain/Indicator: TA100, Metabolic Activation: MOUSE, LIVER, S-9, AROCLOR 1254, Method: STANDARD PLATE) was “inactive; negative”, the mutagenic call (Test System: AMES SALMONELLA TYPHIMURIUM, Strain/Indicator: TA100, Metabolic Activation: MOUSE, LIVER, S-9, PCB, Method: PREINCUBATION) was “inactive; negative” and the mutagenic call (Test System: AMES SALMONELLA TYPHIMURIUM, Strain/Indicator: TA100, Metabolic Activation: NONE, Method: PREINCUBATION) was “inactive; negative”. For the same molecule, the mutagenic call (Test System: AMES SALMONELLA TYPHIMURIUM, Strain/Indicator: TA100, Metabolic Activation: NONE, Method: STANDARD PLATE) was “inactive; negative”, the mutagenic call (Test System: AMES SALMONELLA TYPHIMURIUM, Strain/Indicator: TA100, Metabolic Activation: RAT, LIVER, S-9, AROCLOR 1254 (10%), Method: PREINCUBATION) was “inactive; negative” and the mutagenic call (Test System: AMES SALMONELLA TYPHIMURIUM, Strain/Indicator: TA100, Metabolic Activation: RAT, LIVER, S-9, AROCLOR 1254, Method: STANDARD PLATE) was “inactive; negative”. The mutagenic call (Test System: AMES SALMONELLA TYPHIMURIUM, Strain/Indicator: TA100, Metabolic Activation: RAT, LIVER, S-9, ETHANOL, Method: STANDARD PLATE) was “inactive; negative”, the mutagenic call (Test System: AMES SALMONELLA TYPHIMURIUM, Strain/Indicator: TA100, Metabolic Activation: RAT, LIVER, S-9, PCB, Method: PREINCUBATION) was “inactive; negative” and the mutagenic call (Test System: AMES SALMONELLA TYPHIMURIUM, Strain/Indicator: TA100, Metabolic Activation: RAT, LIVER, S-9, PYRAZOLE, Method: STANDARD PLATE) was “inactive; negative”. The mutagenic call (Test System: AMES SALMONELLA TYPHIMURIUM, Strain/Indicator: TA102, Metabolic Activation: RAT, LIVER, S-9, ETHANOL, Method: STANDARD PLATE) was “inactive; negative”, the mutagenic call (Test System: AMES SALMONELLA TYPHIMURIUM, Strain/Indicator: TA102, Metabolic Activation: RAT, LIVER, S-9, PYRAZOLE, Method: STANDARD PLATE) was “inactive; negative” and the mutagenic call (Test System: AMES SALMONELLA TYPHIMURIUM, Strain/Indicator: TA1535, Metabolic Activation: HAMSTER, LIVER, S-9, AROCLOR 1254 (10%), Method: PREINCUBATION) was “inactive; negative”. The mutagenic call (Test System: AMES SALMONELLA TYPHIMURIUM, Strain/Indicator: TA1535, Metabolic Activation: HAMSTER, LIVER, S-9, AROCLOR 1254, Method: STANDARD PLATE) was “inactive; negative”, the mutagenic call (Test System: AMES SALMONELLA TYPHIMURIUM, Strain/Indicator: TA1535, Metabolic Activation: MOUSE, LIVER, S-9, AROCLOR 1254, Method: STANDARD PLATE) was “inactive; negative” and the mutagenic call (Test System: AMES SALMONELLA TYPHIMURIUM, Strain/Indicator: TA1535, Metabolic Activation: NONE, Method: PREINCUBATION) was “inactive; negative”. The mutagenic call (Test System: AMES SALMONELLA TYPHIMURIUM, Strain/Indicator: TA1535, Metabolic Activation: NONE, Method: STANDARD PLATE) was “inactive; negative”, the mutagenic call (Test System: AMES SALMONELLA TYPHIMURIUM, Strain/Indicator: TA1535, Metabolic Activation: RAT, LIVER, S-9, AROCLOR 1254 (10%), Method: PREINCUBATION) was “inactive; negative” and the mutagenic call (Test System: AMES SALMONELLA TYPHIMURIUM, Strain/Indicator: TA1535, Metabolic Activation: RAT, LIVER, S-9, AROCLOR 1254, Method: STANDARD PLATE) was “inactive; negative”. The mutagenic call (Test System: AMES SALMONELLA TYPHIMURIUM, Strain/Indicator: TA1535, Metabolic Activation: RAT, LIVER, S-9, PYRAZOLE, Method: STANDARD PLATE) was “inactive; negative”, the mutagenic call (Test System: AMES SALMONELLA TYPHIMURIUM, Strain/Indicator: TA1537, Metabolic Activation: HAMSTER, LIVER, S-9, AROCLOR 1254 (10%), Method: PREINCUBATION) was “inactive; negative” and the mutagenic call (Test System: AMES SALMONELLA TYPHIMURIUM, Strain/Indicator: TA1537, Metabolic Activation: HAMSTER, LIVER, S-9, AROCLOR 1254, Method: STANDARD PLATE) was “inactive; negative”. The mutagenic call (Test System: AMES SALMONELLA TYPHIMURIUM, Strain/Indicator: TA1537, Metabolic Activation: MOUSE, LIVER, S-9, AROCLOR 1254, Method: STANDARD PLATE) was “inactive; negative”, the mutagenic call (Test System: AMES SALMONELLA TYPHIMURIUM, Strain/Indicator: TA1537, Metabolic Activation: NONE, Method: PREINCUBATION) was “inactive; negative” and the mutagenic call (Test System: AMES SALMONELLA TYPHIMURIUM, Strain/Indicator: TA1537, Metabolic Activation: NONE, Method: STANDARD PLATE) was “inactive; negative”. The mutagenic call (Test System: AMES SALMONELLA TYPHIMURIUM, Strain/Indicator: TA1537, Metabolic Activation: RAT, LIVER, S-9, AROCLOR 1254 (10%), Method: PREINCUBATION) was “inactive; negative”, the mutagenic call (Test System: AMES SALMONELLA TYPHIMURIUM, Strain/Indicator: TA1537, Metabolic Activation: RAT, LIVER, S-9, AROCLOR 1254, Method: STANDARD PLATE) was “inactive; negative” and the mutagenic call (Test System: AMES SALMONELLA TYPHIMURIUM, Strain/Indicator: TA1537, Metabolic Activation: RAT, LIVER, S-9, PYRAZOLE, Method: STANDARD PLATE) was “inactive; negative”. For the same molecule, the mutagenic call (Test System: AMES SALMONELLA TYPHIMURIUM, Strain/Indicator: TA1538, Metabolic Activation: HAMSTER, LIVER, S-9, AROCLOR 1254, Method: STANDARD PLATE) was “inactive; negative”, the mutagenic call (Test System: AMES SALMONELLA TYPHIMURIUM, Strain/Indicator: TA1538, Metabolic Activation: MOUSE, LIVER, S-9, AROCLOR 1254, Method: STANDARD PLATE) was “inactive; negative” and the mutagenic call (Test System: AMES SALMONELLA TYPHIMURIUM, Strain/Indicator: TA1538, Metabolic Activation: NONE, Method: STANDARD PLATE) was “inactive; negative”. For the same molecule, the mutagenic call (Test System: AMES SALMONELLA TYPHIMURIUM, Strain/Indicator: TA1538, Metabolic Activation: RAT, LIVER, S-9, AROCLOR 1254, Method: STANDARD PLATE) was “inactive; negative” and the mutagenic call (Test System: TEST SALMONELLA TYPHIMURIUM, Strain/Indicator: TA1537, Metabolic Activation: RAT, LIVER, S-9, AROCLOR 1254, Method: STANDARD PLATE) was “inactive; negative”.
